These results are taken from PubChem BioAssay (NCI).

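Compound exposure: 48 hours, 5 concentrations, 96-well plates. The concentration for full growth arrest is given as TGI.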 A value given as a limit tells only on which side of the number the result lay.

Test systems include A498 renal; CAKI-1 renal; HCT-116 colon; HL-60(TB) leukemia; HT29 colon; K-562 leukemia; NCI-H460 lung; OVCAR-8 ovarian; PC-3 prostate; RPMI-8226 leukemia; SF-295 CNS; SK-MEL-2 melanoma; SK-MEL-28 melanoma; U251 CNS; UACC-257 melanoma; BT-549 breast.
Test in all cases: NCI-60 cell line screen, 48 h

Take `O=C1C(NCCc2cc(Br)c(O)c(Br)c2)=CC(=O)c2ncccc21`: the TGI in the assay on A498 renal is 9.88 µM; with CAKI-1 renal, 25 µM; in the assay on HCT-116 colon, 12.4 µM; with HL-60(TB) leukemia it was 12.7 µM; in the assay with HT29 colon it was > 30.6 µM; in the assay on K-562 leukemia it was 13.8 µM. Besides, the TGI with NCI-H460 lung is 5.41 µM; in the assay with OVCAR-8 ovarian, 32.7 µM; in the assay on PC-3 prostate, > 100 µM; with RPMI-8226 leukemia, 23.2 µM; in the assay with SF-295 CNS, 12.9 µM; in the assay on SK-MEL-2 melanoma, 29.9 µM. In addition, the figures for the TGI with SK-MEL-28 melanoma, with U251 CNS and in the assay with UACC-257 melanoma were 10 µM, 33 µM and 7.73 µM, respectively.
As to `C/C(C=O)=N\Nc1cc(C)c2ccccc2n1`, the TGI turned out to be 28.9 µM in the assay on A498 renal; 26.6 µM with BT-549 breast; 30.7 µM in the assay on CAKI-1 renal; 27.6 µM with HCT-116 colon; 30.8 µM in the assay on HT29 colon; 46.6 µM in the assay with K-562 leukemia. The TGI with OVCAR-8 ovarian was 34.8 µM; in the assay with PC-3 prostate it was 33 µM; in the assay with RPMI-8226 leukemia, 39 µM; in the assay on SF-295 CNS, 39.4 µM; in the assay on SK-MEL-2 melanoma, 37.8 µM; with SK-MEL-28 melanoma, 39.1 µM. Moreover, the TGI with U251 CNS was found to be 31.2 µM; in the assay on UACC-257 melanoma it was 36.6 µM.
`COc1ccc(/C=C/C(=O)NCC(NC(=O)/C=C/c2ccc(OC)c(OC)c2)C(=O)O)cc1OC` (stereo not given): the TGI in the assay on A498 renal, with BT-549 breast, with CAKI-1 renal, with HCT-116 colon, in the assay on HT29 colon and in the assay on K-562 leukemia was > 100 µM throughout. In addition, the TGI in the assay on NCI-H460 lung, in the assay on OVCAR-8 ovarian, in the assay on PC-3 prostate, in the assay with RPMI-8226 leukemia, in the assay on SF-295 CNS and in the assay with SK-MEL-2 melanoma was > 100 µM in each case. The TGI in the assay with SK-MEL-28 melanoma, in the assay on U251 CNS and with UACC-257 melanoma was > 100 µM throughout.
With `Cn1c(=O)nc2n(CCO)c(-c3ccccc3)c(-c3ccccc3)nc-2c1=O`, the TGI with A498 renal, in the assay on BT-549 breast, with CAKI-1 renal, in the assay on HCT-116 colon, in the assay with HT29 colon and in the assay with K-562 leukemia was > 100 µM in each case. Moreover, the TGI in the assay with NCI-H460 lung, in the assay with OVCAR-8 ovarian, in the assay with PC-3 prostate, in the assay with RPMI-8226 leukemia, in the assay on SF-295 CNS and with SK-MEL-2 melanoma was > 100 µM each time. Also, the TGI in the assay with SK-MEL-28 melanoma, in the assay with U251 CNS and with UACC-257 melanoma was > 100 µM each time.
For `N[C@@H]1C[C@H](N)c2c(Cl)sc(Cl)c21`, the TGI in the assay on A498 renal, in the assay on BT-549 breast, in the assay on CAKI-1 renal, in the assay with HCT-116 colon, in the assay on K-562 leukemia and in the assay on NCI-H460 lung was > 100 µM in each case. For the same compound, the TGI in the assay with OVCAR-8 ovarian, in the assay with PC-3 prostate, with RPMI-8226 leukemia, with SF-295 CNS, with SK-MEL-2 melanoma and in the assay with SK-MEL-28 melanoma was > 100 µM in each case. The TGI in the assay with U251 CNS and in the assay on UACC-257 melanoma was > 100 µM in each case.
With `Clc1ccc(C2=Nc3ccccc3SC(c3ccc(Cl)c(Cl)c3)C2)c(Cl)c1` (stereo not given), the TGI in the assay on A498 renal is 37.4 µM; in the assay with CAKI-1 renal, 29.6 µM; in the assay on HCT-116 colon it was 23.4 µM; in the assay on HL-60(TB) leukemia, 24.8 µM; in the assay on HT29 colon, 28.5 µM; in the assay on K-562 leukemia, 22.3 µM. For the same compound, the TGI in the assay with NCI-H460 lung was 34.4 µM; in the assay on OVCAR-8 ovarian it was 31.1 µM; in the assay with RPMI-8226 leukemia it was 6.01 µM; in the assay on SF-295 CNS it was 17 µM; in the assay on SK-MEL-2 melanoma, 31.5 µM; in the assay with SK-MEL-28 melanoma, 30.3 µM. Besides, the TGI with U251 CNS was determined as 32 µM; with UACC-257 melanoma, 41.1 µM.
With `CC(C#N)Nc1ccc(Oc2ccc(C(C)(C)c3ccc(Oc4ccc(NC(C)C#N)cc4)cc3)cc2)cc1` (stereo not given), the TGI with A498 renal, in the assay on BT-549 breast, with CAKI-1 renal, in the assay on HCT-116 colon, in the assay with HT29 colon and in the assay with K-562 leukemia was > 100 µM each time. Also, the TGI in the assay on NCI-H460 lung, in the assay on OVCAR-8 ovarian, in the assay with PC-3 prostate, in the assay with SF-295 CNS, with SK-MEL-2 melanoma and with SK-MEL-28 melanoma was > 100 µM in each case. Further, the TGI in the assay with U251 CNS and in the assay with UACC-257 melanoma was > 100 µM each time.
Turning to `c1ccc(C2=NN(c3ccccc3)C3(S2)SC(c2ccccc2)(c2ccccc2)c2ccccc23)cc1` (stereo not given), the TGI with A498 renal, in the assay with CAKI-1 renal, with HCT-116 colon, in the assay on HL-60(TB) leukemia, in the assay with HT29 colon and in the assay on K-562 leukemia was > 100 µM throughout. Besides, the TGI in the assay on NCI-H460 lung, in the assay on OVCAR-8 ovarian, in the assay with RPMI-8226 leukemia, in the assay on SF-295 CNS, in the assay with SK-MEL-2 melanoma and in the assay on SK-MEL-28 melanoma was > 100 µM in each case. The TGI with U251 CNS and with UACC-257 melanoma was > 100 µM throughout.
As to `CC(=NNC(=S)Nc1ccccc1C)c1cccc(C(C)=NNC(=S)Nc2ccccc2C)n1`, the TGI in the assay with A498 renal, with CAKI-1 renal, in the assay on HCT-116 colon, in the assay on HL-60(TB) leukemia, with HT29 colon and with K-562 leukemia was > 100 µM throughout. Further, the TGI with NCI-H460 lung, with OVCAR-8 ovarian, in the assay on PC-3 prostate, with RPMI-8226 leukemia, with SF-295 CNS and in the assay on SK-MEL-2 melanoma was > 100 µM throughout. Also, the TGI in the assay on SK-MEL-28 melanoma, with U251 CNS and in the assay on UACC-257 melanoma was > 100 µM throughout.
